# Target: T1, Full length human recombinant HDAC6 protein (Homo sapiens, UniProt Q9UBN7)
# T1 sequence (Q9UBN7 1-1215): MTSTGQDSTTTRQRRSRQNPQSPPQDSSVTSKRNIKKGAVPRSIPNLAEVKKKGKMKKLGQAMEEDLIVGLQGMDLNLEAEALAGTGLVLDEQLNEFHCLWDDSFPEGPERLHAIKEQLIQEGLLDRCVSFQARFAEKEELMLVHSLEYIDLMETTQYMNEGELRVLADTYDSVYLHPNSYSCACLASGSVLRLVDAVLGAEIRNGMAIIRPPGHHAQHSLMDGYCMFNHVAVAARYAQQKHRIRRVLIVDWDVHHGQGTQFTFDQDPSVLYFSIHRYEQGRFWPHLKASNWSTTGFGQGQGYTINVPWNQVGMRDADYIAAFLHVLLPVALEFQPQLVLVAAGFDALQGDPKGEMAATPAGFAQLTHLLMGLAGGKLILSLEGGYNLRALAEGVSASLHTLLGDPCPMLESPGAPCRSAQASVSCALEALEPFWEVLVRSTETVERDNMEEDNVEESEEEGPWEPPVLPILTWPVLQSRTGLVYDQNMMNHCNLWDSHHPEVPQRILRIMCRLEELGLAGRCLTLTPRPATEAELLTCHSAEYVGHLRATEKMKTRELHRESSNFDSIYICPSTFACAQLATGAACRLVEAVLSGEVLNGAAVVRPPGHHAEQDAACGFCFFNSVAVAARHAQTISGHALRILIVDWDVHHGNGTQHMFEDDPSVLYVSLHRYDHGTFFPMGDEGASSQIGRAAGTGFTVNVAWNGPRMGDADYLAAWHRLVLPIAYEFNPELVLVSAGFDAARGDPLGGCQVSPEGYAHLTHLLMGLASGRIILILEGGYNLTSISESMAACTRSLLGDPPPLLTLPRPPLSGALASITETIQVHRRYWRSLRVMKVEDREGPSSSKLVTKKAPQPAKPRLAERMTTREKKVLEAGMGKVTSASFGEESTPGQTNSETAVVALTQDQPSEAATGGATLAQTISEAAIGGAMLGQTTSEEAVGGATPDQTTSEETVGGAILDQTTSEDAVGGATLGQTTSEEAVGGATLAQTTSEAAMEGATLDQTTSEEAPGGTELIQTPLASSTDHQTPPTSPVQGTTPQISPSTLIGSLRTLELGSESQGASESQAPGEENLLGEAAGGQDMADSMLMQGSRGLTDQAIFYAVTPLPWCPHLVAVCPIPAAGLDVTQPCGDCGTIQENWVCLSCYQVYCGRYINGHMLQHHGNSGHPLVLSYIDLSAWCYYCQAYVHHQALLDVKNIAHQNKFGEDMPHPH
# Assay: In vitro histone deacetylase assay: enzymatic HDAC6 electrophoretic mobility shift assay
# Type: biochemical
# Details: 1 nM enzyme, 2 μM peptide substrate RHKK(Ac)-NH2, 25° C., 12 concentrations; read-out: Inhibitory Concentration (IC50) Values against HDAC6, Activity Range
row,Structure (SMILES),IC50 [nM]
1,"COc1ccc(CC(=O)N2CCOc3ccc(C(=O)NO)cc3C2)cc1 [N-hydroxy-4-(2-(4-methoxyphenyl)acetyl)-2,3,4,5-tetrahydrobenzo[f][1,4]oxazepine-7-carboxamide]",> 500
2,"COc1ccc(CC(=O)N2CCOc3cc(C(=O)NO)ccc3C2)cc1 [N-hydroxy-4-(2-(4-methoxyphenyl)acetyl)-2,3,4,5-tetrahydrobenzo[f][1,4]oxazepine-8-carboxamide]",> 500
3,"COc1ccc(CC(=O)N2CC(=O)Nc3ccc(C(=O)NO)cc3C2)cc1 [N-hydroxy-4-(2-(4-methoxyphenyl)acetyl)-2-oxo-2,3,4,5-tetrahydro-1H-benzo[e][1,4]diazepine-7-carboxamide]",> 500
4,"COc1ccc2[nH]cc(CC(=O)N3CCOc4cc(C(=O)NO)ccc4C3)c2c1 [N-hydroxy-4-(2-(5-methoxy-1H-indol-3-yl)acetyl)-2,3,4,5-tetrahydrobenzo[f][1,4]oxazepine-8-carboxamide]",> 500
5,"Cc1nnnn1C(C(=O)N1CCOc2cc(C(=O)NO)ccc2C1)c1ccccc1 (stereo not drawn) [N-hydroxy-4-(2-(5-methyl-1H-tetrazol-1-yl)-2-phenylacetyl)-2,3,4,5-tetrahydrobenzo[f][1,4]oxazepine-8-carboxamide]",100 to 500
6,"CC(C(=O)N1CCOc2cc(C(=O)NO)ccc2C1)c1cccnc1 (stereo not drawn) [N-hydroxy-4-(2-(pyridin-3-yl)propanoyl)-2,3,4,5-tetrahydrobenzo[f][1,4]oxazepine-8-carboxamide]",≤ 100
7,"O=C(NO)c1ccc2c(c1)OCCN(C(=O)C1CCCC13CCNC3)C2 (stereo not drawn) [N-hydroxy-4-(2-azaspiro[4.4]nonane-6-carbonyl)-2,3,4,5-tetrahydrobenzo[f][1,4]oxazepine-8-carboxamide]",100 to 500
8,"O=C(NO)c1ccc2c(c1)OCCN(C(=O)C1CCC3(CCNC3)CC1)C2 (stereo not drawn) [N-hydroxy-4-(2-azaspiro[4.5]decane-8-carbonyl)-2,3,4,5-tetrahydrobenzo[f][1,4]oxazepine-8-carboxamide]",≤ 100
9,"CC(C)(O)C(=O)N1CCOc2cc(C(=O)NO)ccc2C1 [N-hydroxy-4-(2-hydroxy-2-methylpropanoyl)-2,3,4,5-tetrahydrobenzo[f][1,4]oxazepine-8-carboxamide]",100 to 500
10,"CC(C)C(O)(C(=O)N1CCOc2cc(C(=O)NO)ccc2C1)c1ccccc1 (stereo not drawn) [N-hydroxy-4-(2-hydroxy-3-methyl-2-phenylbutanoyl)-2,3,4,5-tetrahydrobenzo[f][1,4]oxazepine-8-carboxamide]",> 500
11,"CC(C)COCC(=O)N1CCOc2cc(C(=O)NO)ccc2C1 [N-hydroxy-4-(2-isobutoxyacetyl)-2,3,4,5-tetrahydrobenzo[f][1,4]oxazepine-8-carboxamide]",> 500
12,"Cc1cc(C)c(CC(=O)N2CCOc3cc(C(=O)NO)ccc3C2)c(C)c1 [N-hydroxy-4-(2-mesitylacetyl)-2,3,4,5-tetrahydrobenzo[f][1,4]oxazepine-8-carboxamide]",≤ 100
13,"COC(C(=O)N1CCOc2cc(C(=O)NO)ccc2C1)c1ccccc1 (stereo not drawn) [N-hydroxy-4-(2-methoxy-2-phenylacetyl)-2,3,4,5-tetrahydrobenzo[f][1,4]oxazepine-8-carboxamide]",100 to 500
14,"COC(C)(C(=O)N1CCOc2cc(C(=O)NO)ccc2C1)c1ccccc1 (stereo not drawn) [N-hydroxy-4-(2-methoxy-2-phenylpropanoyl)-2,3,4,5-tetrahydrobenzo[f][1,4]oxazepine-8-carboxamide]",100 to 500
15,"Cc1ccn(C(C)(C)C(=O)N2CCOc3cc(C(=O)NO)ccc3C2)n1 [N-hydroxy-4-(2-methyl-2-(3-methyl-1H-pyrazol-1-yl)propanoyl)-2,3,4,5-tetrahydrobenzo[f][1,4]oxazepine-8-carboxamide]",≤ 100
16,"CC(C)(C(=O)N1CCOc2cc(C(=O)NO)ccc2C1)c1ccc2ccccc2c1 [N-hydroxy-4-(2-methyl-2-(naphthalen-2-yl)propanoyl)-2,3,4,5-tetrahydrobenzo[f][1,4]oxazepine-8-carboxamide]",100 to 500
17,"CC(C)(C(=O)N1CCOc2cc(C(=O)NO)ccc2C1)c1ccccn1 [N-hydroxy-4-(2-methyl-2-(pyridin-2-yl)propanoyl)-2,3,4,5-tetrahydrobenzo[f][1,4]oxazepine-8-carboxamide]",100 to 500

row,Structure (SMILES),IC50 [nM]
1,"CC(C)(C(=O)N1CCOc2cc(C(=O)NO)ccc2C1)c1cccnc1 [N-hydroxy-4-(2-methyl-2-(pyridin-3-yl)propanoyl)-2,3,4,5-tetrahydrobenzo[f][1,4]oxazepine-8-carboxamide]",100 to 500
2,"CC(C)(C(=O)N1CCOc2cc(C(=O)NO)ccc2C1)c1cccs1 [N-hydroxy-4-(2-methyl-2-(thiophen-2-yl)propanoyl)-2,3,4,5-tetrahydrobenzo[f][1,4]oxazepine-8-carboxamide]",≤ 100
3,"CC(C)(C(=O)N1CCOc2cc(C(=O)NO)ccc2C1)c1ccccc1 [N-hydroxy-4-(2-methyl-2-phenylpropanoyl)-2,3,4,5-tetrahydrobenzo[f][1,4]oxazepine-8-carboxamide]",100 to 500
4,"CC(Cc1ccccc1)C(=O)N1CCOc2cc(C(=O)NO)ccc2C1 (stereo not drawn) [N-hydroxy-4-(2-methyl-3-phenylpropanoyl)-2,3,4,5-tetrahydrobenzo[f][1,4]oxazepine-8-carboxamide]",≤ 100
5,"O=C(NO)c1ccc2c(c1)OCCN(C(=O)CN1CCOCC1)C2 [N-hydroxy-4-(2-morpholinoacetyl)-2,3,4,5-tetrahydrobenzo[f][1,4]oxazepine-8-carboxamide]",> 500
6,"O=C(NO)c1ccc2c(c1)OCCN(C(=O)C(Oc1ccccc1)c1ccccc1)C2 (stereo not drawn) [N-hydroxy-4-(2-phenoxy-2-phenylacetyl)-2,3,4,5-tetrahydrobenzo[f][1,4]oxazepine-8-carboxamide]",100 to 500
7,"CCC(Oc1ccccc1)C(=O)N1CCOc2cc(C(=O)NO)ccc2C1 (stereo not drawn) [N-hydroxy-4-(2-phenoxybutanoyl)-2,3,4,5-tetrahydrobenzo[f][1,4]oxazepine-8-carboxamide]",100 to 500
8,"CC(Oc1ccccc1)C(=O)N1CCOc2cc(C(=O)NO)ccc2C1 (stereo not drawn) [N-hydroxy-4-(2-phenoxypropanoyl)-2,3,4,5-tetrahydrobenzo[f][1,4]oxazepine-8-carboxamide]",100 to 500
9,"O=C(NO)c1ccc2c(c1)OCCN(C(=O)C(c1ccccc1)n1cccn1)C2 (stereo not drawn) [N-hydroxy-4-(2-phenyl-2-(1H-pyrazol-1-yl)acetyl)-2,3,4,5-tetrahydrobenzo[f][1,4]oxazepine-8-carboxamide]",100 to 500
10,"O=C(NO)c1ccc2c(c1)OCCN(C(=O)C(c1ccccc1)n1cnnn1)C2 (stereo not drawn) [N-hydroxy-4-(2-phenyl-2-(1H-tetrazol-1-yl)acetyl)-2,3,4,5-tetrahydrobenzo[f][1,4]oxazepine-8-carboxamide]",100 to 500
11,"O=C(NO)c1ccc2c(c1)OCCN(C(=O)C(OCC(F)(F)F)c1ccccc1)C2 (stereo not drawn) [N-hydroxy-4-(2-phenyl-2-(2,2,2-trifluoroethoxy)acetyl)-2,3,4,5-tetrahydrobenzo[f][1,4]oxazepine-8-carboxamide]",100 to 500
12,"O=C(NO)c1ccc2c(c1)OCCN(C(=O)C(OC1CCOCC1)c1ccccc1)C2 (stereo not drawn) [N-hydroxy-4-(2-phenyl-2-((tetrahydro-2H-pyran-4-yl)oxy)acetyl)-2,3,4,5-tetrahydrobenzo[f][1,4]oxazepine-8-carboxamide]",> 500
13,"CCC(C(=O)N1CCOc2cc(C(=O)NO)ccc2C1)c1ccccc1 (stereo not drawn) [N-hydroxy-4-(2-phenylbutanoyl)-2,3,4,5-tetrahydrobenzo[f][1,4]oxazepine-8-carboxamide]",100 to 500
14,"O=C(NO)c1ccc2c(c1)OCCN(C(=O)C1CC1c1ccccc1)C2 (stereo not drawn) [N-hydroxy-4-(2-phenylcyclopropane-1-carbonyl)-2,3,4,5-tetrahydrobenzo[f][1,4]oxazepine-8-carboxamide]",≤ 100
15,"O=C(NO)c1ccc2c(c1)OCCN(C(=O)C1Oc3ccccc3C13CCNCC3)C2 (stereo not drawn) [N-hydroxy-4-(2H-spiro[benzofuran-3,4′-piperidine]-2-carbonyl)-2,3,4,5-tetrahydrobenzo[f][1,4]oxazepine-8-carboxamide]",100 to 500
16,"COc1ccc(CC(C(=O)N2CCOc3cc(C(=O)NO)ccc3C2)c2ccccc2)cc1 (stereo not drawn) [N-hydroxy-4-(3-(4-methoxyphenyl)-2-phenylpropanoyl)-2,3,4,5-tetrahydrobenzo[f][1,4]oxazepine-8-carboxamide]",100 to 500

# From patent US11891365B2, “3-alkyl-4-amido-bicyclic [4,5,0] hydroxamic acids as HDAC inhibitors” (Valo Health, Inc., priority 2015, dated 2024)
